Laboratory results published in US9493434B2, “Substituted indenes as medicaments” (LABORATORIOS DEL DR. ESTEVE S.A., priority 2012, dated 2016).
Where a name gives a salt, the structure may show the parent alone.

Biological target: T1, σ1-receptor (Cavia porcellus, UniProt Q60492)
T1 construct: Guinea pig brains were homogenized in 10 vols; (w/v) of Tris-HCl 50 mM 0.32 M sucrose, pH 7.4; from tissue; host or cells: guinea pig brain membranes
Assay: σ1-receptor binding assay, [3H]-(+)-pentazocine, guinea pig brain membranes
Conditions: radioligand [3H]-(+)-pentazocine 5.0 nM, 150 min at 37° C., nonspecific binding with 1 μM haloperidol
Method: Brain membrane preparation and binding assays for the σ1-receptor were performed as described (DeHaven-Hudkins, D. L., L. C. Fleissner, and F. Y. Ford-Rice, 1992, Characterization of the binding of [^3H](+)pentazocine to […] recognition sites in guinea pig brain, Eur. J. Pharmacol. 227, 371-378) with some modifications. Guinea pig brains were homogenized in 10 vols. (w/v) of Tris-HCl 50 mM 0.32 M sucrose, pH 7.4, with a Kinematica Polytron PT 3000 at 15000 r.p.m. for 30 s. The homogenate was centrifuged at 1000 g for 10 min at 4° C. and the supernatants collected and centrifuged again at 48000 g for 15 min at 4° C. The pellet was resuspended in 10 volumes of Tris-HCl buffer (50 mM, pH 7.4), incubated at 37° C. for 30 min, and centrifuged at 48000 g for 20 min at 4° C. Following this, the pellet was re-suspended in fresh Tris-HCl buffer (50 mM, pH 7.4) and stored on ice until use.
The radioligand used was [^3H]-(+)-pentazocine at 5.0 nM and the final volume was 200 μl. The incubation was initiated with the addition of 100 μl of membrane at a final tissue concentration of approximately 5 mg tissue net weight/mL and the incubation time was 150 m. at 37° C. After incubation, the membranes were collected onto pretreated glass fiber filterplate (MultiScreen-FC, Millipore), with polyethylenimine 0.1%. The filters were washed two times with 200 μl of washing buffer (50 mM Tris CI, pH=7.4) and then 25 μl of Ecoscint H liquid scintillation cocktail were added. Microplates were allowed to set for several hours and then quantified by liquid scintillation spectrophotometry (1450 Microbeta, Wallac). Nonspecific binding was determined with 1 μM haloperidol.

T1 sequence (Q60492 whole entry): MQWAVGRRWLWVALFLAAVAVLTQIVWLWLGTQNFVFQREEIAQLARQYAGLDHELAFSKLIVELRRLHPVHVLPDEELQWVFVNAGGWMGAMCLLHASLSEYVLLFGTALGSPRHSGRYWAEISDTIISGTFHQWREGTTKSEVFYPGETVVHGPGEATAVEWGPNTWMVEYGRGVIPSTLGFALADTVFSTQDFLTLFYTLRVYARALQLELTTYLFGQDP

Ki [nM]	Structure (SMILES)
29	CN1CCCN(CCC2=CCc3c2cccc3-c2ccncc2)CC1 [Compound 31, 1-methyl-4-(2-(7-(pyridin-4-yl)-1H-inden-3-yl)ethyl)-1,4-diazepane maleate]
4	Fc1cccc(-c2cccc3c2CC=C3CCN2CCOCC2)c1 [Compound 18, 4-(2-(7-(3-fluorophenyl)-1H-inden-3-yl)ethyl)morpholine maleate]
25	CN1CCN(CCC2=CCc3c2cccc3-c2ccc(Cl)c(Cl)c2)CC1 [Compound 20, 1-(2-(7-(3,4-dichlorophenyl)-1H-inden-3-yl)ethyl)-4-methylpiperazine maleate]
14	CN1CCN(CCC2=CCc3c2cccc3-c2cccc(F)c2)CC1 [Compound 17, 1-(2-(7-(3-fluorophenyl)-1H-inden-3-yl)ethyl)-4-methylpiperazine maleate]
6	C1=C(CCN2CCOCC2)c2cccc(-c3ccsc3)c2C1 [Compound 25, 4-(2-(7-(thiophen-3-yl)-1H-inden-3-yl)ethyl)morpholine maleate]
51	CC1=C(CCN2CCN(C)CC2)c2cccc(-c3ccccc3)c2C1 [Compound 12, 1-methyl-4-(2-(2-methyl-7-phenyl-1H-inden-3-yl)ethyl)piperazine maleate]
12	Clc1ccc(-c2cccc3c2CC=C3CCN2CCOCC2)cc1Cl [Compound 19, 4-(2-(7-(3,4-dichlorophenyl)-1H-inden-3-yl)ethyl)morpholine maleate]
185	CN1CCN(CCC2=CCc3c2cccc3-n2ccnn2)CC1 [Compound 27, 1-(2-(7-(1H-1,2,3-triazol-1-yl)-1H-inden-3-yl)ethyl)-4-methylpiperazine maleate]
29	CN1CCN(CCC2=CCc3c2cccc3-c2ccnc(F)c2)CC1 [Compound 33, 1-(2-(7-(2-fluoropyridin-4-yl)-1H-inden-3-yl)ethyl)-4-methylpiperazine maleate]
24	CN1CCN(CCC2=CCc3c2cccc3-c2ccncc2F)CC1 [Compound 4, 1-(2-(7-(3-fluoropyridin-4-yl)-1H-inden-3-yl)ethyl)-4-methylpiperazine maleate]
30	CN1CCN(CCC2=CCc3c2cccc3-c2ccnn2C)CC1 [Compound 38, 1-methyl-4-(2-(7-(1-methyl-1H-pyrazol-5-yl)-1H-inden-3-yl)ethyl)piperazine maleate]
7	C1=C(CCN2CCCCCC2)c2cccc(-c3ccccc3)c2C1 [Compound 9, 1-(2-(7-phenyl-1H-inden-3-yl)ethyl)azepane maleate]
12	Fc1ccc(-c2cccc3c2CC=C3CCN2CCCCCC2)cc1 [Compound 2, 1-(2-(7-(4-fluorophenyl)-1H-inden-3-yl)ethyl)azepane hydrochloride]
63	Clc1cccc(N2CCN(CCC3=CCc4c3cccc4-c3ccccc3)CC2)c1 [Compound 7, 1-(3-chlorophenyl)-4-(2-(7-phenyl-1H-inden-3-yl)ethyl)piperazine maleate]
180	COc1ccc(-c2cccc3c2CC=C3CCN2CCOCC2)cn1 [Compound 39, 4-(2-(7-(6-methoxypyridin-3-yl)-1H-inden-3-yl)ethyl)morpholine maleate]
37	COc1ccc(-c2cccc3c2CC=C3CCN2CCN(C)CC2)cn1 [Compound 36, 1-(2-(7-(6-methoxypyridin-3-yl)-1H-inden-3-yl)ethyl)-4-methylpiperazine maleate]
34	CN1CCN(CCC2=CCc3c2cccc3-c2ccc(F)nc2)CC1 [Compound 37, 1-(2-(7-(6-fluoropyridin-3-yl)-1H-inden-3-yl)ethyl)-4-methylpiperazine maleate]
143	CN1CCN(CCC2=CCc3cc(-c4ccncc4)ccc32)CC1 [Compound 40, 1-methyl-4-(2-(6-pyridin-4-yl)-1H-inden-3-yl)ethyl)piperazine maleate]

Ki [nM]	Structure (SMILES)
129	COc1ccc(-c2cccc3c2CC=C3CCN2CCN(C)CC2)cc1 [Compound 22, 1-(2-(7-(4-methoxyphenyl)-1H-inden-3-yl)ethyl)-4-methylpiperazine maleate]
7	C1=C(CCN2CCCCC2)c2cccc(-c3ccccc3)c2C1 [Compound 8, 1-(2-(7-phenyl-1H-inden-3-yl)ethyl)piperidine maleate]
13	C1=C(CCN2CCC(c3ccccc3)CC2)c2cccc(-c3ccccc3)c2C1 [Compound 10, 4-phenyl-1-(2-(7-phenyl-1H-inden-3-yl)ethyl)piperidine maleate]
31	C1=C(CCN2CCN(c3ccccc3)CC2)c2cccc(-c3ccccc3)c2C1 [Compound 6, 1-phenyl-4-(2-(7-phenyl-1H-inden-3-yl)ethyl)piperazine maleate]
61	CN1CCN(CCC2=CCc3c2cccc3-c2cccnc2)CC1 [Compound 35, 1-methyl-4-(2-(7-(pyridin-3-yl)-1H-inden-3-yl)ethyl)piperazine maleate]
36	Cc1noc(C)c1-c1cccc2c1CC=C2CCN1CCN(C)CC1 [Compound 28, 3,5-dimethyl-4-(3-(2-(4-methylpiperazin-1-yl)ethyl)-1H-inden-7-yl)isoxazole maleate]
53	COc1ccc(-c2cccc3c2CC=C3CCN2CCOCC2)cc1 [Compound 21, 4-(2-(7-(4-methoxyphenyl)-1H-inden-3-yl)ethyl)morpholine maleate]
12	CN1CCN(CCC2=CCc3c2cccc3-c2ccc(F)cc2)CC1 [Compound 16, 1-(2-(7-(4-fluorophenyl)-1H-inden-3-yl)ethyl)-4-methylpiperazine maleate]
47	C1=C(CCN2CCOCC2)c2cccc(-c3ccncc3)c2C1 [Compound 3, 4-(2-(7-(pyridin-4-yl)-1H-inden-3-yl)ethyl)morpholine maleate]
120	CN1CCN(CCC2=CCc3cc(-c4ccnc(F)c4)ccc32)CC1 [Compound 41, 1-(2-(6-(2-fluoropyridin-4-yl)-1H-inden-3-yl)ethyl)-4-methylpiperazine maleate]
26	CN1CCN(CCC2=CCc3c2cccc3-c2ccncc2)CC1 [Compound 30, 1-methyl-4-(2-(7-(pyridin-4-yl)-1H-inden-3-yl)ethyl)piperazine maleate]
8	Fc1ccc(-c2cccc3c2CC=C3CCN2CCCCC2)cc1 [Compound 15, 1-(2-(7-(4-fluorophenyl)-1H-inden-3-yl)ethyl)piperidine maleate]
168	CN1CCN(CCC2=CCc3c2cccc3-c2cncnc2)CC1 [Compound 29, 5-(3-(2-(4-methylpiperazin-1-yl)ethyl)-1H-inden-7-yl)pyrimidine maleate]
13	CN1CCN(CCC2=CCc3c2cccc3-c2ccccc2)CC1 [Compound 5, 1-methyl-4-(2-(7-phenyl-1H-inden-3-yl)ethyl)piperazine maleate]
7	CN1CCN(CCC2=CCc3c2cccc3-c2ccsc2)CC1 [Compound 26, 1-methyl-4-(2-(7-(thiophen-3-yl)-1H-inden-3-yl)ethyl)piperazine maleate]
24	Fc1ccc(-c2cccc3c2CC=C3CCN2CCN(c3ccccc3)CC2)cc1 [Compound 14, 1-(2-(7-(4-fluorophenyl)-1H-inden-3-yl)ethyl)-4-phenylpiperazine maleate]
82	C1=C(CCN2CCOCC2)c2cccc(-c3cccnc3)c2C1 [Compound 34, 4-(2-(7-(pyridin-3-yl)-1H-inden-3-yl)ethyl)morpholine maleate]

Structure (SMILES)	Ki [nM]
C1=C(CCN2CCOCC2)c2cccc(-c3ccccc3)c2C1 [Compound 1, 4-(2-(7-phenyl-1H-inden-3-yl)ethyl)morpholine maleate]	3
CC1=C(CCN2CCOCC2)c2cccc(-c3ccccc3)c2C1 [Compound 11, 4-(2-(2-methyl-7-phenyl-1H-inden-3-yl)ethyl)morpholine maleate]	28
Fc1ccc(-c2cccc3c2CC=C3CCN2CCOCC2)cc1 [Compound 13, 4-(2-(7-(4-fluorophenyl)-1H-inden-3-yl)ethyl)morpholine maleate]	4
